{"source": "patent USRE43135E1", "about": "“Method of improving dough and bread quality” (Danisco A/S, priority 2001, dated 2012)", "key": {"[1]": {"test": "Enzyme-catalysed degumming of vegetable oil", "assay_type": "biochemical", "details": "rapeseed oil degumming; preliminary results", "experimental": "Vegetable oil, in particular rapeseed oil, was treated with LAH isolated from cowpea to effect degumming of the oil. The process used was essentially as per the enzyme-catalysed degumming process of vegetable oil generally taught in Buchold, H. (Fat Sci. Technol. 95 Jahrgang nr. 8, 1993, pp300-305), excepting that LAH was used."}, "[2]": {"test": "Model dough, HPLC analysis of polar lipids in dough (cowpea LAH)", "assay_type": "biochemical, wheat", "experimental": "(§1) 10 g of flour and 0.020 g sodium chloride were mixed in a 10 g Farinograph mixing bowl for 1 minute either with or without enzymes. Subsequently water (500 Brabender units) was added and mixed for 5 minutes at 30° C. After mixing the dough was placed at 32° C. for 1 hour, and then frozen and freeze dried prior to further analysis.\n(§2) 10 g of fully proofed dough was immediately frozen and freeze dried. The freeze-dried dough was milled in a coffee mill and passed through an 800 micron screen. 1.5 g freeze-dried dough was scaled in a 15 ml centrifuge tube with screw top lid. 7.5 ml water saturated butanol (WSB) was added. The centrifuge tube was placed in a boiling water bath for 10 minutes. The tubes were placed in a Rotamix and rotated at 45 rpm for 20 minutes at ambient temperature and then placed in a boiling water bath again for a further 10 minutes prior to being Rotated on the Rotamix for a further 30 minutes at ambient temperature. The tubes were centrifuged at 3500 g for 5 minutes. 5 ml supernatant was transferred into a vial and the WSB was evaporated to dryness under a steam of nitrogen.\n(§3) Determination of Free Fatty Acids for Lipase Assay, JAOCS 63:89). Determination of Glycolipids and Phospholipids by HPLC.\n(§4) The calibration curve for PC was used to calculate the amounts of the glycolipids and phospholipids.\nLipids extracted from the dough were further analysed by HPLC in order to study the effect on polar lipids in the dough."}, "[3]": {"test": "Model dough, GLC analysis of non-polar lipids (cowpea LAH)", "assay_type": "biochemical, wheat", "details": "Example 1, FIG. 7, compared with activity on polar lipids and free fatty acid formation", "experimental": "as §1\nPerkin Elmer 8420 Capillary Gas Chromatography equipped with WCOT fused silica column 12.5 m×0.25 mm ID×0.1 μm 5% phenyl-methyl-silicone (CP Sil 8 CB from Crompack). • Carrier: Helium. • Injection: 1.5 μl with split. • Detector: FID. 385° C.\nSample preparation: 50 mg wheat lipid was dissolved in 12 ml heptane: pyridine 2:1 containing an internal standard heptadecane, 2 mg/ml. 500 μl of the sample was transferred to a crimp vial. 100 μl MSTFA (N-Methyl-N-trimethylsilyltrifluoracetamid) was added and the reaction incubated for 15 minutes at 90° C. Calculation: Response factors for mono-di-triglycerides and free fatty acid were determined from reference mixtures of these components. Based on these response factors the mono-di-triglycerides and free fatty acids in wheat lipids were calculated.\nThe non-polar lipids were analysed by GLC."}, "[4]": {"test": "Minibread dough, HPLC analysis of galactolipids", "assay_type": "biochemical, wheat", "experimental": "as §2, §3, §4"}, "[5]": {"test": "Assay for enzyme activity with pNP-Caprate", "assay_type": "biochemical", "details": "desalted/concentrated sample of purification step 5 (used for baking trials)", "experimental": "Preparation of substrate for enzymatic assay: The substrate, pNP-Caprate (C10), was dissolved in ethanol and diluted in 100 mM Na-Phosphate-buffer (pH 6.3) to a final concentration of 0.1 mg,/ml substrate and 30% ethanol respectively, and kept at room temperature.\nAssay method: The enzyme assay mixture contained 30 μl sample/blank and 250 μl substrate. The mixture was incubated at 35° C. for 30 minutes (420 nm) whilst simultaneously running an ELISA-reader (420 nm) kinetic program. The Vmax value was used for calculation of enzyme activity (U/ml). Vmax was converted to μmol from a standard curve for solutions of pNP measured under the same conditions as the sample. The enzyme activity is defined as the amount of enzyme which produce 1 μmol of pNP per min. at 35° C."}, "[6]": {"test": "Minibread dough, free fatty acid analysis", "assay_type": "biochemical, wheat", "experimental": "as §2\nThe free fatty acids in the extract were analysed as Cu-salts in isooctane measured at 715 nm and quantified according to a calibration curve based on oleic acid (Kwon D. Y. and Rhee J. S. (1986), A simple and rapid Colourimetric Method for […]"}, "[7]": {"test": "Model dough, free fatty acid in dough (cowpea LAH)", "assay_type": "biochemical, wheat", "experimental": "as §1, §2\nThe free fatty acids in the extract were analysed as Cu-salts in isooctane measured at 715 nm and quantified according to a calibration curve based on oleic acid (Kwon D. Y. and Rhee J. S. (1986), A simple and rapid Colourimetric Method for\nIn the first series of dough experiments purified cowpea LAH was tested in 10 g dough in different concentrations in order to test the activity of the enzyme in dough and in order to find a suitable dosage for baking experiments. The activity of the enzyme was measured by analysing the level of free fatty acid in dough."}, "[8]": {"details": "Cowpea LAH 0.0048 Units/kg flour"}, "[9]": {"details": "Cowpea LAH 0.024 Units/kg flour"}, "[10]": {"details": "Cowpea LAH % 0.1195, minibread dough"}, "[11]": {"details": "Cowpea LAH % 0.239, minibread dough"}, "[12]": {"details": "Cowpea LAH % 0.478, minibread dough"}, "[13]": {"details": "Cowpea LAH % 0.956, minibread dough"}, "[14]": {"details": "Test no. 2, Cowpea LAH 0.05 % in dough, fully proofed minibread dough"}, "[15]": {"details": "Test no. 3, Cowpea LAH 0.15 % in dough, fully proofed minibread dough"}, "[16]": {"details": "Test no. 3, Cowpea LAH 0.357 Units/kg flour, no DGDG added, minibread dough"}, "[17]": {"details": "Test no. 4, Cowpea LAH 0.357 Units/kg flour + DGDG 55% pure 0.2 %, minibread dough"}}}
{"substance": "Cowpea LAH: lipolytic acyl hydrolase (E.C. 3.1.1.26) isolated from cowpea (Vigna unguiculata) leaves; hydrolyses glycolipid and phospholipid, not triglyceride", "values": [{"measurement": "amounts of polar lipids in the oil", "setting": "[1]", "value": "reduce the amounts of polar lipids"}, {"measurement": "triglyceride levels of the oil", "setting": "[1]", "value": "not significantly affecting"}, {"measurement": "DGDG", "setting": "[2]; [8]", "value": "2.22 ‰"}, {"measurement": "DGMG", "setting": "[2]; [8]", "value": "0.20 ‰"}, {"measurement": "LPC", "setting": "[2]; [8]", "value": "1.50 ‰"}, {"measurement": "PC", "setting": "[2]; [8]", "value": "0.52 ‰"}, {"measurement": "DGDG", "setting": "[2]; [9]", "value": "2.12 ‰"}, {"measurement": "DGMG", "setting": "[2]; [9]", "value": "0.23 ‰"}, {"measurement": "LPC", "setting": "[2]; [9]", "value": "1.51 ‰"}, {"measurement": "PC", "setting": "[2]; [9]", "value": "0.48 ‰"}, {"measurement": "DGDG", "setting": "[2]; Cowpea LAH 0.12 Units/kg flour", "value": "1.84 ‰"}, {"measurement": "DGMG", "setting": "[2]; Cowpea LAH 0.12 Units/kg flour", "value": "0.26 ‰"}, {"measurement": "LPC", "setting": "[2]; Cowpea LAH 0.12 Units/kg flour", "value": "1.37 ‰"}, {"measurement": "PC", "setting": "[2]; Cowpea LAH 0.12 Units/kg flour", "value": "0.35 ‰"}, {"measurement": "DGDG", "setting": "[2]; Cowpea LAH 0.6 Units/kg flour", "value": "1.08 ‰"}, {"measurement": "DGMG", "setting": "[2]; Cowpea LAH 0.6 Units/kg flour", "value": "0.30 ‰"}, {"measurement": "LPC", "setting": "[2]; Cowpea LAH 0.6 Units/kg flour", "value": "1.30 ‰"}, {"measurement": "PC", "setting": "[2]; Cowpea LAH 0.6 Units/kg flour", "value": "0.29 ‰"}, {"measurement": "DGDG", "setting": "[2]; Cowpea LAH 3.0 Units/kg flour", "value": "0.30 ‰"}, {"measurement": "DGMG", "setting": "[2]; Cowpea LAH 3.0 Units/kg flour", "value": "0.11 ‰"}, {"measurement": "LPC", "setting": "[2]; Cowpea LAH 3.0 Units/kg flour", "value": "1.19 ‰"}, {"measurement": "PC", "setting": "[2]; Cowpea LAH 3.0 Units/kg flour", "value": "0.00 ‰"}, {"measurement": "activity on triglyceride (GLC analysis)", "setting": "[3]", "value": "no activity"}, {"measurement": "DGDG", "setting": "[4]; [10]", "value": "2.08 ‰"}, {"measurement": "DGMG", "setting": "[4]; [10]", "value": "0.23 ‰"}, {"measurement": "DGDG", "setting": "[4]; [11]", "value": "2.01 ‰"}, {"measurement": "DGMG", "setting": "[4]; [11]", "value": "0.20 ‰"}, {"measurement": "DGDG", "setting": "[4]; [12]", "value": "1.89 ‰"}, {"measurement": "DGMG", "setting": "[4]; [12]", "value": "0.24 ‰"}, {"measurement": "DGDG", "setting": "[4]; [13]", "value": "1.60 ‰"}, {"measurement": "DGMG", "setting": "[4]; [13]", "value": "0.20 ‰"}, {"measurement": "DGDG", "setting": "[4]; [14]", "value": "2.03 ‰"}, {"measurement": "DGMG", "setting": "[4]; [14]", "value": "0.27 ‰"}, {"measurement": "DGDG", "setting": "[4]; [15]", "value": "1.92 ‰"}, {"measurement": "DGMG", "setting": "[4]; [15]", "value": "0.28 ‰"}, {"measurement": "DGDG", "setting": "[4]; [16]", "value": "1.93 ‰"}, {"measurement": "DGMG", "setting": "[4]; [16]", "value": "0.23 ‰"}, {"measurement": "DGDG", "setting": "[4]; [17]", "value": "2.4 ‰"}, {"measurement": "DGMG", "setting": "[4]; [17]", "value": "0.25 ‰"}, {"measurement": "Vmax", "setting": "[5]", "value": 5.6, "unit": "mOD/min."}, {"measurement": "enzyme activity", "setting": "[5]", "value": 0.010, "unit": "U/ml"}, {"measurement": "Free fatty acid in dough", "setting": "[6]; Cowpea LAH 0.1195 Units/kg", "value": "2.72 ‰"}, {"measurement": "Free fatty acid in dough", "setting": "[6]; Cowpea LAH 0.239 Units/kg", "value": "2.81 ‰"}, {"measurement": "Free fatty acid in dough", "setting": "[6]; Cowpea LAH 0.478 Units/kg", "value": "3.07 ‰"}, {"measurement": "Free fatty acid in dough", "setting": "[6]; Cowpea LAH 0.956 Units/kg", "value": "3.28 ‰"}, {"measurement": "Free fatty acid", "setting": "[6]; Test no 3, Cowpea LAH 0.357 Units/kg flour, no DGDG", "value": "3.07 ‰"}, {"measurement": "Free fatty acid", "setting": "[6]; Test no 4, Cowpea LAH 0.357 Units/kg flour + DGDG 55% pure 0.2 %", "value": "3.00 ‰"}, {"measurement": "Free fatty acid", "setting": "[6]; Test no 10, Cowpea LAH 1.07 Units/kg flour, no DGDG", "value": "3.32 ‰"}, {"measurement": "Free fatty acid", "setting": "[6]; Test no 11, Cowpea LAH 1.07 Units/kg flour + DGDG 55% pure 0.1 %", "value": "3.42 ‰"}, {"measurement": "Free fatty acid", "setting": "[6]; Test no 12, Cowpea LAH 1.07 Units/kg flour + DGDG 55% pure 0.2 %", "value": "3.64 ‰"}, {"measurement": "Free fatty acid", "setting": "[6]; Test no 13, Cowpea LAH 1.07 Units/kg flour + DGDG 55% pure 0.4 %", "value": "3.92 ‰"}, {"measurement": "Free fatty acid", "setting": "[6]; Test no 15, Cowpea LAH 1.07 Units/kg flour + Soy oil 2 %", "value": "3.35 ‰"}, {"measurement": "Free fatty acid", "setting": "[6]; Test no 16, Cowpea LAH 2.14 Units/kg flour + Soy oil 2 %", "value": "3.75 ‰"}, {"measurement": "Fatty acid in dough", "setting": "[6]; Test no. 2, Cowpea LAH 0.05 % in dough", "value": "2.75 ‰"}, {"measurement": "Fatty acid in dough", "setting": "[6]; Test no. 3, Cowpea LAH 0.15 % in dough", "value": "2.96 ‰"}, {"measurement": "Fatty acid in dough", "setting": "[7]; [8]", "value": "1.66 ‰"}, {"measurement": "Fatty acid in dough", "setting": "[7]; [9]", "value": "1.78 ‰"}, {"measurement": "Fatty acid in dough", "setting": "[7]; Cowpea LAH 0.12 Units/kg flour", "value": "2.13 ‰"}, {"measurement": "Fatty acid in dough", "setting": "[7]; Cowpea LAH 0.6 Units/kg flour", "value": "2.55 ‰"}, {"measurement": "Fatty acid in dough", "setting": "[7]; Cowpea LAH 3 Units/kg flour", "value": "3.44 ‰"}]}
